Like-named read-outs stand apart in the source and are kept apart here.
What was measured:
[1] = tested on: receptors associated with pain-related syndromes (e.g. adenosine and sodium channel); experiment: Radioligand binding assay among 73 primary molecular targets; conditions: SC12 at fixed concentration of 30 microM
[2] = tested on: AY-27 rat bladder cancer cell-line; conditions: in vivo
[3] = Single dose intravenous acute toxicity study in rats; assay type: in vivo, Sprague Dawley rat; conditions: for Mortality: preliminary phase, one male and one female; for Mortality and signs of toxicity: main phase
Protocol: An additional group, similarly composed, received the vehicle alone and acted as a control. […] Clinical signs were limited to piloerection and reduced activity, observed on the day of dosing.
In the main phase, 5 male and 5 female animals were dosed at 90 mg/kg and observed for a period of 14 days. A second group, similarly constituted, received the vehicle alone and acted as control. […] In addition, one male and one female dosed at 90 mg/kg were found dead on Day 2 of the study. Twitches, ataxia, piloerection, reduced activity and hunched posture were the major signs observed in animals before death. […] Piloerection was observed up to Day 3 of the study. A second group, similarly composed, was dosed at 80 mg/kg.

CYP1A2 = CYP1A2 (Homo sapiens (Human), UniProt P05177); experiment: Fluorescent High Throughput P450 assay, CYP1A2; assay type: biochemical; conditions: substrate CEC; read-out: CYP1A2 IC50 (Mean ± S.D.)
Chain of CYP1A2 (P05177 whole entry, looked up): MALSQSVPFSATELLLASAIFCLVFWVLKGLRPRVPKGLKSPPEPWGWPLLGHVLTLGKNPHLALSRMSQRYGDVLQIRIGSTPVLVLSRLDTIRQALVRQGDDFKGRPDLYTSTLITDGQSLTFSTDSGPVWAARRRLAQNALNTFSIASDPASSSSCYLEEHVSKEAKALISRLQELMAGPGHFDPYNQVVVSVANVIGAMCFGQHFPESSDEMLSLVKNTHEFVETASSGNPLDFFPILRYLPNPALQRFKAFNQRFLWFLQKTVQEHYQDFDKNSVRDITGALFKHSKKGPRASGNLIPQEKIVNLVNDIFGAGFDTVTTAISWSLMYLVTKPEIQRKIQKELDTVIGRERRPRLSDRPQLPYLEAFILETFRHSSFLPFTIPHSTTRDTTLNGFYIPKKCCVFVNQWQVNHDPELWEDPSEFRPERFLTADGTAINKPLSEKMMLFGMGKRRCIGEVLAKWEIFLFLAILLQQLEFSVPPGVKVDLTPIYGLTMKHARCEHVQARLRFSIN
Protocol: (§1) Inhibition of the P450 isoforms was measured in specific assays using specific substrates that become fluorescent upon CYP metabolism. Compounds, dissolved in ACN (acetonitrile) (CYP2E1, CYP2C8, CYP2B6, CYP3A5) or DMSO (all remaining isoforms), were tested in duplicate (n=2) in concentration-response curves (eight concentrations) in a 96-well plate containing incubation/NADPH regenerating buffer. Specific isoenzymes and substrates were added and incubated at 37° C. Reactions were terminated at different times, depending on the assays, and plates read on a Fluoroskan Ascent at the appropriate emission/excitation wavelengths. Concentration-response curves performed in duplicate for known inhibitors for each isoenzyme were tested in every assay as positive control.

[4] = tested on: recombinant protein antigens from Plasmodium falciparum and Mycobacterium ulcerans; experiment: Pilot immunization study with adjuvanted protein antigens; assay type: in vivo, mice; conditions: three s.c. immunizations
Protocol: A pilot immunization study was conducted using Compound A and SC12 adjuvanted protein antigens. The immunization experiments were performed with two recombinant proteins expressed in E. coli. One antigen was derived from the malaria parasite Plasmodium falciparum and the other one from Mycobacterium ulcerans, which cause the ulcerative skin disease Buruli ulcer.

CYP2D6 = CYP2D6 (Homo sapiens (Human), UniProt P10635); experiment: Fluorescent High Throughput P450 assay, CYP2D6; assay type: biochemical; conditions: substrate AMMC; read-out: CYP2D6 IC50 (Mean ± S.D.)
Chain of CYP2D6 (P10635 whole entry, looked up): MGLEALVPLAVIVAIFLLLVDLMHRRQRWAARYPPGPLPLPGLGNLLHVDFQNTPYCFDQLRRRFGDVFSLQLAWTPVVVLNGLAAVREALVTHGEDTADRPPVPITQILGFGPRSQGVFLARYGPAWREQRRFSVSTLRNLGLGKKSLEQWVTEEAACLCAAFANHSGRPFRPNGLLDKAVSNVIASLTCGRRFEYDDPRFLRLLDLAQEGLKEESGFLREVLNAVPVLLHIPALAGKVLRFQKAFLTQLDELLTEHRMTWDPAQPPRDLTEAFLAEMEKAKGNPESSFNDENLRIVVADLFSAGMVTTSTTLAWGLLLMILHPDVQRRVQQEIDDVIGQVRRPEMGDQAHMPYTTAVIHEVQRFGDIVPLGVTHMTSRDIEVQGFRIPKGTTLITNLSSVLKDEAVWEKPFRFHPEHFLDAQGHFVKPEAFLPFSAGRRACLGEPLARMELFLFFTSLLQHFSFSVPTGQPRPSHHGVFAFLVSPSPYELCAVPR
Protocol: as §1

[5] = tested on: Cutaneous Squamous Cell Carcinoma cell lines SCL-I, SCL-II, SCC-12, SCC-13; experiment: Direct proapoptotic and cytotoxic effects on SCC cells (real-time cell analysis, microscopy); assay type: cell-based, human
Protocol: SCC cells are grown under standard conditions (10% FBS).
Time and dose dependency of effects on total cell numbers have been investigated by real-time cell analysis, which is based on continuous monitoring of electric conductance in microtiter wells (E-plates, Roche), which corresponds to the cell numbers. […] For these assays 4 cell lines should be used to obtain a representative overview on the effects on SCC cells.

human PBMCs = experiment: IL-6 secretion in human PBMCs, two batches of Compound A and SC12; assay type: cell-based; conditions: 24 h, 4 doses
Protocol: PBMCs were purified from two donors and plated into 96 well plates at 2×10^5 cells/well in RPMI media including human 2% heat inactivated AB serum, glutamine, Pen-strep and R-mercapto-ethanol. The cells were treated with TLR7 agonists for 24 h in 4 doses. The conditioned media was removed for ELISA analyses for IL-6, and the EC50 value determined for each compound and each batch.
All compounds were tested in four concentrations (10-1-0.1-0.01 micromolar).
Concentrations of IL-6 were determined by ELISA from R&D Systems using the Microsoft Excel software. The results were analyzed in Graph Pad Prism in order to prepare dose-response curves, and for determination of EC50 values.

CYP3A5 = CYP3A5 (Homo sapiens (Human), UniProt P20815); experiment: Fluorescent High Throughput P450 assay, CYP3A5; assay type: biochemical; conditions: substrate BFC; read-out: CYP3A5 IC50 (Mean ± S.D.)
Chain of CYP3A5 (P20815 whole entry, looked up): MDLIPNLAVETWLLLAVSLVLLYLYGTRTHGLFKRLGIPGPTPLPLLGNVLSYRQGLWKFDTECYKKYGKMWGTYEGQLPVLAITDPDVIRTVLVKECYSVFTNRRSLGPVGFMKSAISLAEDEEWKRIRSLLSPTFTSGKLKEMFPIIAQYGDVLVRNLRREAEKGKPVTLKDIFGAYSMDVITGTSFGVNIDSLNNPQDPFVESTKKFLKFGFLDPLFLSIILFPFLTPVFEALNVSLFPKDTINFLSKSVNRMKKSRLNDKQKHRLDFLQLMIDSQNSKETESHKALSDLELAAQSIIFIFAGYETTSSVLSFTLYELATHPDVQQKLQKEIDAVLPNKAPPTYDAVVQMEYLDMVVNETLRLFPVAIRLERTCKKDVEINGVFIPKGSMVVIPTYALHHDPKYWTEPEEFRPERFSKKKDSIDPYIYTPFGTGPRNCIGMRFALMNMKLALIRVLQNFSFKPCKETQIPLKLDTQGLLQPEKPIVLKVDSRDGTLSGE
Protocol: as §1

whole blood = experiment: Cytokine secretion in human whole blood assay (ELISA); assay type: cell-based
Protocol: A volume of approximately 55 mL fresh whole blood was drawn in heparinized Vacutainers from three healthy adult anonymous volunteers as described (J. A. Ida, Journal of Immunol Methods, 310, 2006, 86-99). […] Before drawing the blood, the compounds were added to 96 well round bottom plates in a 10× diluted sample at 20 ul. The compounds were diluted in RPMI media without serum but with antibiotics. Antibiotics were added at a 10× concentration. After drawing the blood, the whole blood sample was gently mixed to obtain a homogeneous sample, and 180 ul was added to each well.
After 6 hours and 24 hours incubation, plasma was removed for ELISA (IL-6, IL-10, IL-12p40 and IFN-alpha). ELISA was made at the 6 and 24 hours time point for all concentrations. After 24 hours incubation with selected compound concentrations, cells were analyzed for activation markers by FACS.
All compounds were setup in concentrations at 0-0.01-0.03-0.1-0.5-2.0-10.0 micromolar as the final concentration. Vehicle control was DMSO control, where we used the highest concentration used for the compounds. After addition of blood, all plates were gently agitated at 37° C. and 5% CO2 until harvest. The samples were removed after 6 or 24 hours incubation, and pooled into appropriate tubes (2 ml).
Concentrations of cytokines were determined by ELISA from R&D Systems. The results were analyzed in Graph Pad Prism in order to prepare dose-response
curves, and for determination of EC50 values. FACS analysis was made by using Becton-Dickinson FACSDiva software and subsequently illustrated in Graph Pad Prism.

[6] = Stability of solid samples with respect to heat (80° C.), HPLC; assay type: physicochemical
Protocol: Solid samples of each compound were maintained at 80° C. and analyzed by HPLC.

## CCCCCCCCCCCC(=O)OCC(COP(=O)(O)OCCNC(=O)c1ccc(Cn2c(=O)[nH]c3c(N)nc(OCCOC)nc32)cc1)OC(=O)CCCCCCCCCCC (stereo not drawn) [SC12]
[1]
  Binding to receptors associated with pain-related syndromes: did not bind
[2]
  Signs of toxicity: No signs of toxicity
[3]; 76 mg/kg i.v.
  Mortality: No mortality occurred
[3]; 80 mg/kg i.v.
  Mortality and signs of toxicity: no mortality and no signs of toxicity
[3]; 90 mg/kg i.v., 5 male and 5 female
  Mortality and signs of toxicity: induced mortality or significant signs of toxicity
[3]; 100 mg/kg i.v.
  Mortality: Both animals died at dosing
[3]; single intravenous dose
  Maximum tolerated dose: 80 mg/kg
CYP1A2
  IC50: > 100 µM
[4]; 10 nMol adjuvant
  Local side effects (swelling, ulcerations): No local side effects
[4]; 20 micrograms antigen with 10 nMol adjuvant
  IgG responses against target antigens: all 20 immunized mice had developed IgG responses
CYP2D6
  IC50: 67 ± 3.8 µM
[5]; 4 cutaneous SCC cell lines, versus untreated control
  Cell numbers (electric conductance, real-time cell analysis): reduced cell numbers
[5]; day 3, 120 microM
  Morphology and proliferation (microscopy): cell detachment, morphological changes and inhibition of proliferation
Human PBMCs; Donor 1, listed as SC12 new 20288
  EC50: 1870 nM
Human PBMCs; Donor 1, listed as SC12 old CH730/2/13D
  EC50: 2010 nM
Human PBMCs; Donor 2, listed as SC12 new 20288
  EC50: 947 nM
Human PBMCs; Donor 2, listed as SC12 old CH730/2/13D
  EC50: 1030 nM
CYP3A5
  IC50: 10.5 ± 0.5 µM
Whole blood; 6 hours incubation
  IL-10 production: no IL-10 production was seen
Whole blood; Donor 1, read-out: EC50-IFN-alpha, 24 h Incubation
  EC50: 200 nM
Whole blood; Donor 1, read-out: EC50-IL-6, 24 h Incubation
  EC50: 220 nM
Whole blood; Donor 1, read-out: EC50-IL-10, 24 h Incubation
  EC50: 1340 nM
Whole blood; Donor 1, read-out: EC50-IL-12p40, 24 h Incubation
  EC50: 4100 nM
Whole blood; Donor 2, read-out: EC50-IFN-alpha, 24 h Incubation
  EC50: 110 nM
Whole blood; Donor 2, read-out: EC50-IL-6, 24 h Incubation
  EC50: 60 nM
Whole blood; Donor 2, read-out: EC50-IL-10, 24 h Incubation
  EC50: 410 nM
Whole blood; Donor 2, read-out: EC50-IL-12p40, 24 h Incubation
  EC50: 1420 nM
Whole blood; Donor 3, read-out: EC50-IFN-alpha, 24 h Incubation
  EC50: 240 nM
Whole blood; Donor 3, read-out: EC50-IL-6, 24 h Incubation
  EC50: 170 nM
Whole blood; Donor 3, read-out: EC50-IL-10, 24 h Incubation
  EC50: 9000 nM
Whole blood; Donor 3, read-out: EC50-IL-12p40, 24 h Incubation
  EC50: 14200 nM
Whole blood; read-out: EC50-IFN-alpha, 6 h Incubation, Donor 1
  EC50: 980 nM
Whole blood; read-out: EC50-IFN-alpha, 6 h Incubation, Donor 2
  EC50: 830 nM
Whole blood; read-out: EC50-IFN-alpha, 6 h Incubation, Donor 3
  EC50: 1660 nM
Whole blood; read-out: EC50-IL-6, 6 h Incubation, Donor 1
  EC50: 570 nM
Whole blood; read-out: EC50-IL-6, 6 h Incubation, Donor 2
  EC50: 180 nM
Whole blood; read-out: EC50-IL-6, 6 h Incubation, Donor 3
  EC50: 370 nM
Whole blood; read-out: EC50-IL-12, 6 h Incubation (IL-12p40), Donor 2
  EC50: 2360 nM
Whole blood; read-out: EC50-IL-12, 6 h Incubation (IL-12p40), Donor 3
  EC50: 3560 nM
[6]; After 2 hrs at 80° C.
  HPLC purity of solid sample: 90% HPLC
[6]; After 22 hrs at 80° C.
  HPLC purity of solid sample: 88% HPLC
[6]; t = 0
  HPLC purity of solid sample: 90% HPLC

— US9173935B2, “Phospholipid drug analogs” (Telormedix SA, priority 2010, dated 2015)
